Reference: patent publication US5216024A, “Cell growth inhibitors and methods of treating cancer and cell proliferative diseases” (Baylor College of Medicine, priority 1988, dated 1993)
Entries after “also recorded” stand apart in the source; their conditions may differ. Where two headings read alike, the source gives them in different places. Blank lines part the entries; values can stand above or below the compound they belong to.

Assays:
[1] = biological target: nuclear Type II estrogen binding sites; assay: Inhibition assay: [3H]estradiol binding to nuclear Type II sites (uterine nuclei from estrogen-implanted ovariectomized rats); design: species or system rat; details: for IC50: Table I, read-out: TYPE II INHIBITION: concentration (nM) times 10^-2 to inhibit nuclear Type II binding sites by 50%
Procedure: Tissue was dissected from host animals, weighed, rinsed in saline, and homogenized in 10 mM Tris-1.5 mM EDTA, by approximately four 30-sec bursts in a Sorval Omnimixer with intermittent cooling for about 5 min. This crude homogenate was transferred to a Kontes ground glass homogenizer and further homogenized with intermittent cooling until no tissue aggregates were visible. It was imperative that the homogenate be kept cold, about 4° C. through all homogenization steps. The final homogenate was centrifuged at 800×g for approximately 20 min to obtain the crude nuclear pellet, which was then washed by gentle resuspension in a Dounce homogenizer and then centrifuged at 800×g for approximately 7 min. The final washed nuclear pellet was resuspended in 10 mM Tris-1.5 mM EDTA in a concentration ranging from 5 to 50 mg of fresh tissue equivalents/ml. By the term "fresh tissue equivalent" is meant the amount of material which represents the initial concentration in the fresh uterine tissue.
To assess total and nonspecific binding, aliquots of the nuclear suspension were incubated at 37° C. for 30 min with various concentrations ranging from 2 to 40 nM of [^3 H]estradiol with and without a large molar excess of diethylstilbestrol. The diethylstibestrol concentration ranged from 0.6 to 12.0 μM. Following incubation, the nuclear pellets were resuspended in about 1 ml of 10 mM Tris-1.5 mM EDTA buffer and centrifuged at 800×g for about 7 min. The pellet was extracted with 1 ml of ethanol at about 30° C. for about 30 min, and counted in 4 ml of Liquifluor. Specific binding was determined by substraction of nonspecific binding; i.e., not competable by diethylstilbestrol from the total quantity of [^3 H]estradiol bound. Results were expressed as sites/cell, assuming 8 pg of DNA/cell nucleus and that each binding site binds one molecule of [^3 H]estradiol.
In order to assess the levels of this inhibitor activity in various tissue cytosols and LH-20 column chromatography fractions from these cytosols, the following inhibition assay was used. Uterine nuclei were prepared from estrogen-implanted, adult-ovariectomizedrats. The washed nuclear pellet was diluted to 10 mg of fresh uterine equivalents/ml. At this concentration the effects of the endogenous inhibitor were minimal, and nuclear Type II sites bound maximum quantities of [^3 H]estradiol. Aliquots of these nuclei and the inhibitor sample were incubated at about 4° C. for approximately 60 min in the presence of 40 nM of [^3 H]estradiol with and without 12 μM diethylstilbestrol. Under these conditions, nuclear Type II sites were quantitatively measured without interference from Type I sites. The nuclear pellets were resuspended in 1 ml of 10 mM Tris-1.5 mM EDTA and centrifuged, ethanol extracted, and counted. The results were expressed as the percentage of [^3 H]estradiol bound as compared to the buffer control, or as the percentage of inhibition where 100% bound was 0% inhibition and was equivalent to approximately 45,000 cpm.
Thus, more nuclear Type II sites are measured in dilute than in concentrated nuclei. […] The uterine nuclei were prepared as previously described in Markaverich, B. M. et al., J. Biol. Chem. 258:11663-11671 (1983), the disclosure of which is herein incorporated by reference. Briefly, uterine nuclei after preparation were diluted in 10 mM Tris, 1.5 mM EDTA buffer in final volumes equivalent to 10, 20 or 40 mg fresh uterine equivalents per ml, and assayed for estrogen binding sites by [^3 H]estradiol exchange at 37° C. for 30 minutes. Specific binding was determined by subtraction of non-specific binding, i.e., non-competable with 300-fold excess diethylstilbestrol, from the total quantity of [^3 H]estradiol bound. […] Briefly, acid-precipitated, boiled cytosol from rat uterus, mouse mammary tumor and normal mouse mammary gland was diluted as shown on FIG. 2 and evaluated for inhibitor activity. […]

[2] = system: estradiol stimulation of uterine growth (rat uterus); assay: Uterotropic assay: block of estradiol stimulation of uterine growth in immature female rats; assay type: in vivo; details: for GROWTH INHIBITION (%): 10 μg compound, block of estradiol stimulation in the rat uterotropic assay; for block of estradiol stimulation of uterine growth (in words): immature rat, FIGS. 14, 15
Procedure: The rat uterus is exquisitively sensitive to estrogen, and this hormone stimulates uterine cellular hypertrophy, hyperplasia and DNA synthesis within 24 hours following a single injection. Estradiol stimulation of nuclear Type II sites is a prerequisite for these responses. This assay includes injecting immature female rats with saline-ethanol vehicle, estradiol-17β and the test compound of interest. Control rats were injected only with saline-ethanol vehicle and estradiol-17β. The rats were sacrificed 24 hours later and the uterine wet and dry weights were determined. The wet and dry weight measurements are well defined biochemical end points of estrogen action and are a direct index of changes in cell proliferation and DNA synthesis.
estradiol stimulation in the rat uterotropic assay.

[3] = system: MCF-7 human breast cancer cells; assay: MCF-7 cancer cell assay; assay type: cell-based; details: FIG. 12; 1-10 μg/ml, 6 days
Text: To assay for tumor growth sensitivity the MCF-7 human breast cancer cell line in tissue culture was used. One skilled in the art will recognize that this is an excellent model system to assess the effects of hormones and drugs on human cancer cell growth and proliferation. The MCF-7 cells have both Type I and nuclear Type II estrogen receptor sites and respond in a proliferative fashion to estrogenic hormones. Furthermore, they are inhibited by well-known anti-estrogens such as Tamoxifen. The MCF-7 cells were plated at 5×10^5 cells/dish in 30 mm petri dishes and grown in Dulbecco's Modified Eagles Medium containing about 10% charcoal stripped fetal bovine serum for approximately 48 hours. During this interval, the cells attached to the plastic dishes and then underwent exponential growth with a cell-doubling time of approximately 24 hours. The plated cells were allowed to attach for approximately 48 hours and the medium was replaced ("day zero"). The cells were allowed to grow exponentially for about 6 days. […] On day 6 the cells were harvested, counted on a hemocytometer and DNA content per dish was determined by the Burton assay (Burton, K., Biochem. J. 62:315-323, 1956). Results are expressed as cells/dish or DNA content (μg/dish) at 6 days following treatment. […]

malignant (tumor) cells = assay: Metabolism / inactivation by malignant cells; assay type: in vitro ADME
[4] = system: cell growth and proliferation in normal and malignant cells; assay: Cell growth / tumor proliferation inhibition (general statement); assay type: cell-based
[5] = system: estradiol stimulation of uterine growth (rat uterus); details: background statement; cited from earlier work
esterase = assay: Stability to esterase cleavage; assay type: in vitro ADME
[6] = system: MCF-7 human breast cancer cells; details: general knowledge statement; cited from earlier work
[7] = listed as methyl p-hydroxyphenyllactate

IC50 [1]: 80 nM | fold more effective in inhibiting [3H]estradiol binding to nuclear Type II sites than the free acid (HPLA) ([1]; competition analysis, FIGS. 8 and 9, vs HPLA): approximately 20 fold | metabolism / inactivation by malignant cells (in words) (malignant (tumor) cells; listed as MeHPLA): malignant cells metabolize MeHPLA
Structure (SMILES): COC(=O)C(O)Cc1ccc(O)cc1 (centres unmarked) [methyl 3-(4-hydroxyphenyl)-2-hydroxypropionate]
GROWTH INHIBITION (%) [2]: 90% | block of estradiol stimulation of uterine growth (in words) ([2]; listed as MeHPLA): block estrogen stimulation of normal cell growth such as that in the rat uterus | block of estradiol stimulation of uterine growth (in words) [2, 7]: block estradiol stimulation of uterine growth in the immature rat | inhibition of MCF-7 human breast cancer cells [3]: inhibited MCF-7 breast cancer cells in a similar dose-dependent fashion | metabolism / inactivation by malignant cells (in words) (malignant (tumor) cells; [7]): tumor cells have the ability to inactivate methyl p-hydroxyphenyllactate | cell growth inhibition / antitumor activity (in words) ([4]; listed as MeHPLA): cell growth and proliferation are inhibited; also recorded: cell growth and proliferation of non-malignant tissues are slowed down or stopped

IC50 [1]: 600 nM
Structure (SMILES): COC(=O)C=Cc1ccc(O)c(OC)c1 [methyl 3-(4-hydroxy-3-methoxyphenyl)-2-propenoate]
GROWTH INHIBITION (%) [2]: 56%

IC50 [1]: 8000 nM | fold lower affinity for nuclear Type II sites than methyl p-hydroxyphenyllactate ([1]; vs MeHPLA): 20 fold
Structure (SMILES): O=C(O)C(O)Cc1ccc(O)cc1 (centres unmarked) [3-(4-hydroxyphenyl)-2-hydroxypropionic acid, reference compound]
binding to / inhibition of nuclear Type II sites (in words) [1]: low binding affinity for nuclear Type II sites | GROWTH INHIBITION (%) [2]: 0% | block of estradiol stimulation of uterine growth (in words) ([2]; listed as hydroxyphenyllactic acid): higher doses of hydroxyphenyllactic acid showed some partial antagonism; also recorded: but not hydroxyphenyllactic acid | inhibition of MCF-7 human breast cancer cells [3]: did not | cell growth inhibition / antitumor activity (in words) [4]: inhibits the cell growth much less effectively

IC50 [1]: 80 nM
Structure (SMILES): COC(=O)COc1ccc(O)cc1 [methyl (4-hydroxyphenoxy) acetate, methyl (4-hydroxyphenoxy)acetate]
GROWTH INHIBITION (%) [2]: 70%

The next lines start with the compound.

Structure (SMILES): C[C@@H]1C[C@H]2[C@@H]3CCC4=CC(=O)C=C[C@]4(C)[C@@]3(F)[C@@H](O)C[C@]2(C)[C@@]1(O)C(=O)CO [dexamethasone]
inhibition of nuclear Type II sites associated with antagonism of uterotropic responses to estrogen [5]: associated with antagonism of uterotropic responses to estrogen

Structure (SMILES): COC(=O)C=Cc1ccc(O)c(O)c1 [methyl 3-(3,4-dihydroxyphenyl)-2-propenoate]
IC50 [1]: 100 nM | GROWTH INHIBITION (%) [2]: 70%

Structure (SMILES): CC(=O)[C@H]1CC[C@H]2[C@@H]3CCC4=CC(=O)CC[C@]4(C)[C@H]3CC[C@]12C [progesterone]
inhibition of nuclear Type II sites associated with antagonism of uterotropic responses to estrogen [5]: associated with antagonism of uterotropic responses to estrogen

Structure (SMILES): CC(=O)CCc1ccc(O)cc1 [1-(4-hydroxyphenyl)-3-butanone]
binding to / inhibition of nuclear Type II sites (in words) [1]: bind to Type II sites; also recorded: binds to the nuclear Type II sites with a high affinity | IC50 [1]: 200 nM | GROWTH INHIBITION (%) [2]: 96% | block of estradiol stimulation of uterine growth (in words) [2]: antitumor proliferative activity in the uterotropic assay; also recorded: blocks estradiol stimulation of uterine growth when injected into immature rats | stability (in words) (esterase): not subject to the esterase cleavage; also recorded: more stable | inhibition in culture and in vivo relative to MeHPLA (in words) ([4]; culture and in vivo): a better inhibitor in culture and in vivo

Structure (SMILES): CCN(CC)CCOc1ccc(C(=C(Cl)c2ccccc2)c2ccccc2)cc1 [clomiphene]
inhibition of nuclear Type II sites associated with antagonism of uterotropic responses to estrogen [5]: associated with antagonism of uterotropic responses to estrogen

Structure (SMILES): CCC(=O)CCc1ccc(O)cc1 [1-(4-hydroxyphenyl)-3-pentanone]
binding to / inhibition of nuclear Type II sites (in words) [1]: bind to Type II sites | block of estradiol stimulation of uterine growth (in words) [2]: antitumor proliferative activity in the uterotropic assay

Structure (SMILES): CC/C(=C(\c1ccccc1)c1ccc(OCCN(C)C)cc1)c1ccccc1 [Tamoxifen]
inhibition of MCF-7 cells by known anti-estrogens [6]: inhibited

Structure (SMILES): COc1ccc2c(c1)CCC(c1ccccc1)=C2c1ccc(OCCN2CCCC2)cc1 [nafoxidine]
inhibition of nuclear Type II sites associated with antagonism of uterotropic responses to estrogen [5]: associated with antagonism of uterotropic responses to estrogen
